Measured values published in US11814376B2, “Hepatitis b core protein modulators” (Assembly Biosciences, Inc., priority 2015, dated 2023).

Key:
AD38 cells = assay: Viability of AD38 cells (Promega CellTiter-Glo); assay type: cell-based; details: 10 μM compound, 6 days, CellTiter-Glo luminescence normalized to DMSO control (100%)
Procedure, shortened: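 AD38 cells were seeded at 50,000/well on collagen-coated plates and treated with compound added as a 10× solution in 10% DMSO for 6 days at 37° C. Viability was measured by CellTiter-Glo luminescence in tetracycline-free medium with 2% FBS and 1% DMSO, and expressed as percent of DMSO control.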

[1] = test system: HBV viral load in AD38 cells; assay: Viral load production in AD38 cells, quantitative PCR of the core sequence in supernatant; assay type: cell-based; details: Hepatitis B virus, 144 h, 10 μM compound, 6 days at 37° C., supernatant qPCR, relative to DMSO control; read-out: AD38 Viral Load (%) (VL with cmpd/VL in DMSO control) at 10 μM

SMILES	AD38 Viability Normalized Result (cmpd/DMSO %) at 10 μM (AD38 cells)	activity at 10 µM [1]
O=C(NCc1cnc(N2CCCCC2)s1)c1ccc2c(c1)NC(=O)c1ccccc1S2(=O)=O [compound 1905]	109%	0.3%
O=C(O)CSc1ncc(CNC(=O)c2ccc3c(c2)NC(=O)c2ccccc2S3)s1 [compound 1603, 2-((5-((11-oxo-10, 11-dihydrodibenzo [b, f] [1, 4]thiazepine-8-carboxamido)methyl)thiazol-2-yl)thio) acetic acid]	108%	32.8%
CC(C)(NC(=O)c1ccc2c(c1)NC(=O)c1ccccc1S2)c1cncs1 [compound 1549]	105%	106%
O=C(NCc1cnc(-c2ccc(O)cc2Cl)s1)c1ccc2c(c1)NC(=O)c1ccccc1O2 [compound 1703]	93%	3.1%
CC(=O)Nc1ccc(-c2ncc(CNC(=O)c3ccc4c(c3)NC(=O)c3ccccc3S4(=O)=O)s2)cc1 [compound 1932]	101%	2.2%
N#Cc1cccc(-c2ncc(CNC(=O)c3ccc4c(c3)NC(=O)c3ccccc3O4)s2)c1 [1714-A]	106%	49.2%
Cc1cc(-c2ncc(CNC(=O)c3ccc4c(c3)NC(=O)c3ccccc3S4(=O)=O)s2)cc(C)c1O [compound 1806, N-((2-(4-hydroxy-3,5-dimethylphenyl)thiazol-5-yl)methyl)-11-oxo-10, 11-dihydrodibenzo [b, f] [1, 4] thiazepine-8-carboxamide 5,5-dioxide]	105%	0.8%
N#Cc1ccc(-c2ncc(CNC(=O)c3cc4c(cc3Cl)Oc3ccccc3C(=O)N4)s2)cc1 [compound 1913]	111%	68.1%
COc1cccc(Cc2ncc(CNC(=O)c3ccc4c(c3)NC(=O)c3ccccc3S4(=O)=O)s2)c1 [compound 1822, N-((2-(3-methoxybenzyl)thiazol-5-yl)methyl)-11-oxo-10, 11-dihydrodibenzo [b, f] [1, 4] thiazepine-8-carboxamide 5,5-dioxide]	89%	1.5%
CC1c2ccc(C(=O)NCc3cnc(-c4ccc(O)cc4)s3)cc2NC(=O)c2ccccc21 (stereo not drawn) [compound 1754]	93%	1.6%
Cc1cc2c(cc1C(=O)NCc1cnc(C(F)(F)F)s1)NC(=O)c1ccccc1S2(=O)=O [compound 1910]	94%	19%
O=C(NCc1cnc(-c2ccc(F)cc2)s1)c1ccc2c(c1)NC(=O)c1ccccc1S2 [compound 1556]	105%	1.6%
CCOC(=O)/C=C/c1cnn(-c2ncc(CNC(=O)c3ccc4c(c3)NC(=O)c3ccccc3S4(=O)=O)s2)c1 [compound 11118]	95%	1.9%
O=C(NCc1cnc(-c2ccc(OCCCN3CCOCC3)cc2)s1)c1ccc2c(c1)NC(=O)c1ccccc1O2 [compound 11161, N-((2-(4-(3-morpholinopropoxy)phenyl)thiazol-5-yl)methyl)-11-oxo-10, 11-dihydrodibenzo [b, f] [1, 4] oxazepine-8-carboxamide]	104%	1.7%
CCCCN1c2ccc(C(=O)NCc3cnc(C(F)(F)F)s3)cc2NC(=O)c2ccccc21 [compound 1922]	39%	60.3%
O=C(NCc1cnc(OCCOC2CCCCO2)s1)c1ccc2c(c1)NC(=O)c1ccccc1O2 (stereo not drawn) [1613-A, 11-oxo-N-((2-(2-((tetrahydro-2H-pyran-2-yl)oxy)ethoxy)thiazol-5-yl)methyl)-10, 11-dihydrodibenzo [b, f] [1, 4] oxazepine-8-carboxamide]	95%	11.5%
COC(=O)c1ccc(-c2ncc(CNC(=O)c3ccc4c(c3)NC(=O)c3ccccc3O4)s2)cc1 [1612-A, methyl 4-(5-((11-oxo-10, 11-dihydrodibenzo [b, f] [1, 4]oxazepine-8-carboxamido)methyl)thiazol-2-yl) benzoate]	101%	12.4%
O=C(NCc1cnc(-c2ccc(NC(=O)C3CC3)cc2)s1)c1ccc2c(c1)NC(=O)c1ccccc1S2(=O)=O [compound 1931]	97%	8.5%
O=C(NCc1cnc(-c2ccc3ncccc3c2)s1)c1ccc2c(c1)NC(=O)c1ccccc1O2 [compound 1831]	112%	3.8%
N#Cc1cccc(-c2ncc(CNC(=O)c3ccc4c(c3)NC(=O)c3ccccc3S4(=O)=O)s2)c1 [1677-A, N-((2-(3-cyanophenyl)thiazol-5-yl)methyl)-11-oxo-10, 11-dihydrodibenzo [b, f] [1, 4] thiazepine-8-carboxamide 5,5-dioxide]	103%	2.3%

SMILES	AD38 Viability Normalized Result (cmpd/DMSO %) at 10 μM (AD38 cells)	activity at 10 µM [1]
CCc1ncc(CNC(=O)c2ccc3c(c2)NC(=O)c2ccccc2O3)s1 [compound 1558]	106%	0.5%
O=C(NCc1cnc(N2CCS(=O)(=O)CC2)s1)c1ccc2c(c1)NC(=O)c1ccccc1O2 [compound 1866]	98%	2.9%
O=C1Cc2cc(-c3ncc(CNC(=O)c4ccc5c(c4)NC(=O)c4ccccc4S5(=O)=O)s3)ccc2N1 [compound 1821]	102%	0.5%
CS(=O)(=O)Nc1ccc(-c2ncc(CNC(=O)c3ccc4c(c3)NC(=O)c3ccccc3O4)s2)cc1 [compound 1863]	106%	9.4%
O=C(NCc1cnc(-n2ccc(F)n2)s1)c1ccc2c(c1)NC(=O)c1ccccc1S2(=O)=O [compound 11045]	94%	0.6%
O=C(NCc1nccs1)c1ccc2c(c1)NC(=O)c1ccccc1S2(=O)=O [compound 1650]	82%	58.8%
CC(C)c1ncc(CNC(=O)c2ccc3c(c2)NC(=O)c2ccccc2S3(=O)=O)s1 [compound 1552]	102%	0.4%
N#Cc1ccc(-c2ncc(CNC(=O)c3cc4c(cc3O)S(=O)(=O)c3ccccc3C(=O)N4)s2)cc1 [1901-B, N-((2-(4-cyanophenyl)thiazol-5-yl)methyl)-7-hydroxy-11-oxo-10, 11-dihydrodibenzo [b, f] [1, 4] thiazepine-8-carboxamide 5,5-dioxide]	108%	69.4%
Cl.NCc1ccc(-c2ncc(CNC(=O)c3ccc4c(c3)NC(=O)c3ccccc3S4(=O)=O)s2)cc1 [compound 1654, N-((2-(4-(aminomethyl)phenyl)thiazol-5-yl)methyl)-11-oxo-10, 11-dihydrodibenzo [b, f] [1, 4] thiazepine-8-carboxamide 5,5-dioxide hydrochloride]	94%	0.5%
Cc1c(C(=O)NCc2cnc(-c3ccc(C(N)=O)cc3)s2)ccc2c1NC(=O)c1ccccc1S2(=O)=O [compound 1878, N-((2-(4-carbamoylphenyl)thiazol-5-yl)methyl)-9-methyl-11-oxo-10, 11-dihydrodibenzo [b, f] [1, 4] thiazepine-8-carboxamide 5,5-dioxide]	103%	1%
NS(=O)(=O)c1ccc(-c2ncc(CNC(=O)c3ccc4c(c3)NC(=O)c3ccccc3O4)s2)cc1 [compound 1862]	107%	19.9%
O=C(NCc1cnc(Cc2ccc(O)cc2)s1)c1ccc2c(c1)NC(=O)c1ccccc1S2(=O)=O [compound 1823, N-((2-(4-hydroxybenzyl)thiazol-5-yl)methyl)-11-oxo-10, 11-dihydrodibenzo [b, f] [1, 4] thiazepine-8-carboxamide 5,5-dioxide]	96%	5.2%
O=C(NCc1cnc(-c2ccc(O)cc2Cl)s1)c1ccc2c(c1)NC(=O)c1ccccc1S2(=O)=O [compound 1668]	106%	23.4%
CC(=O)NCCCCc1ccc(-c2ncc(CNC(=O)c3ccc4c(c3)NC(=O)c3ccccc3S4(=O)=O)s2)cc1 [compound 11057]	101%	1%
Nc1ccc(-c2ncc(CNC(=O)c3ccc4c(c3)NC(=O)c3ccccc3S4(=O)=O)s2)cc1 [1645-B, N-((2-(4-aminophenyl)thiazol-5-yl)methyl)-11-oxo-10, 11-dihydrodibenzo [b, f] [1, 4] thiazepine-8-carboxamide 5,5-dioxide]	100%	77.8%
CN(C)CC(O)COc1ccc(-c2ncc(CNC(=O)c3ccc4c(c3)NC(=O)c3ccccc3S4(=O)=O)s2)cc1 (stereo not drawn) [compound 11085]	88%	3.4%
COc1ccc(-c2ncc(CNC(=O)c3ccc4c(c3)NC(=O)c3ccccc3O4)s2)cc1C [1736-A]	97%	14.1%
CC(C)CN1c2ccc(C(=O)NCc3cnc(C(F)(F)F)s3)cc2NC(=O)c2ccccc21 [compound 11043]	100%	12%
O=C(NCc1cnc(-c2ccc(O)cc2)s1)c1ccc2c(c1)NC(=O)c1ccc(Cl)cc1S2 [compound 1761]	97%	10.7%
